According to ChEMBL document CHEMBL1250438, “Identification and evaluation of apoptotic compounds from Garcinia paucinervis” (Bioorg Med Chem, 2010):
The source made the active and inactive calls. No cut-off for these calls is given here.

Columns and labels:
Format in all cases: functional, cell-based
HeLa C3 [1] = experiment: Induction of apoptosis in human HeLaC3 cells assessed as reduction of yellow fluorescent protein/cyan fluorescent protein emission ratio below 3 at 10 uM after 72 hrs by FRET assay
HeLa C3 [2] = experiment: Induction of apoptosis in human HeLaC3 cells assessed as reduction of yellow fluorescent protein/cyan fluorescent protein emission ratio below 3 at 25 uM after 72 hrs by FRET assay
HeLa C3 [3] = experiment: Induction of apoptosis in human HeLaC3 cells assessed as reduction of yellow fluorescent protein/cyan fluorescent protein emission ratio below 3 at 50 uM after 72 hrs by FRET assay
HeLa C3 [4] = experiment: Induction of apoptosis in human HeLaC3 cells assessed as morphological changes at 25 uM after 24 to 72 hrs
HeLa C3 [5] = experiment: Induction of apoptosis in human HeLaC3 cells assessed as reduction of yellow fluorescent protein/cyan fluorescent protein emission ratio below 3 at 100 uM after 72 hrs by FRET assay
HeLa [6] = experiment: Cytotoxicity against human HeLa cells after 72 hrs by MTT assay
HeLa [7] = experiment: Induction of apoptosis in human HeLa cells assessed as cleavage of PARP at 25 uM after 36 hrs by Western blotting
HeLa C3 [8] = experiment: Induction of apoptosis in human HeLaC3 cells assessed as reduction of yellow fluorescent protein/cyan fluorescent protein emission ratio below 3 at 25 uM after 48 hrs by FRET assay
HeLa C3 [9] = experiment: Induction of apoptosis in human HeLaC3 cells at 50 to 100 uM after 72 hrs
HeLa [10] = experiment: Induction of apoptosis in human HeLa cells assessed as cleavage of PARP at 25 uM after 12 hrs by Western blotting
HeLa C3 [11] = experiment: Induction of apoptosis in human HeLaC3 cells assessed as reduction of yellow fluorescent protein/cyan fluorescent protein emission ratio below 3 at 25 uM after 24 hrs by FRET assay
HeLa C3 [12] = experiment: Induction of apoptosis in human HeLaC3 cells at < 100 uM after 72 hrs
HeLa C3 [13] = experiment: Induction of apoptosis in human HeLaC3 cells assessed as morphological changes at 500 nM after 24 to 72 hrs

Structure (SMILES)	Activity (HeLa C3 [1])	Activity (HeLa C3 [2])	Activity (HeLa C3 [3])	Activity (HeLa C3 [4])	Activity (HeLa C3 [5])	IC50 (HeLa [6])	Activity (HeLa [7])	Activity (HeLa C3 [8])	Activity (HeLa C3 [9])	Activity (HeLa [10])	Activity (HeLa C3 [11])	Activity (HeLa C3 [12])	Activity (HeLa C3 [13])
CC(C)=CCC/C(C)=C/C[C@H]1C[C@]2(CC=C(C)C)C(=O)[C@@](CC=C(C)C)(C(=O)C(C(=O)c3ccc(O)c(O)c3)=C2O)[C@]1(C)CCC=C(C)C	inactive	Active	Active	Active	Active	–	–	–	–	–	–	–	–
CC1(C)C=Cc2c(c3ccoc3c3oc4c(O)cccc4c23)O1 [PAUCINERVIN C]	inactive	inactive	inactive	–	Active	52.5 µM	–	–	–	–	–	–	–
COc1c(O)c(CC=C(C)C)cc2c1Oc1cc(O)c(CC=C(C)C)c(O)c1C(=O)O2 [PAUCINERVIN A]	inactive	inactive	inactive	–	Active	95.6 µM	–	–	–	–	–	–	–
CC1(C)C=Cc2c(cc3oc4c(O)c(O)ccc4c(=O)c3c2O)O1	Active	Active	inactive	Active	Active	–	Active	Active	Active	Active	–	–	–
C=C(C)[C@@H]1C[C@]23C[C@H](CC=C(C)C)C(C)(C)[C@](CC=C(C)C)(C(=O)C(C(=O)c4ccc(O)c(O)c4)=C2O[C@H]1C=C(C)C)C3=O	inactive	Active	Active	Active	Active	–	–	–	–	–	Active	–	–
CC1=C(C)C(=O)C(CCC(C)(O)CCCC(C)CCCC(C)CCCC(C)C)=C(C)C1=O (configuration not stated)	inactive	inactive	inactive	–	inactive	–	–	–	–	–	–	Active	–
C=C(C)[C@H]1C/C=C(\C)CC/C=C(\C)CC/C=C(\C)CC1	inactive	inactive	inactive	–	Active	–	–	–	–	–	–	–	–
CC1=CCCC(C)(C)C1CCC(C)CCCC(C)CCO (configuration not stated)	inactive	inactive	inactive	–	inactive	–	–	–	–	–	–	–	–
CC(C)=CCc1c(O)cc2oc3ccc(O)cc3c(=O)c2c1O	inactive	inactive	inactive	–	inactive	–	–	–	–	–	–	Active	–
CC(C)=CCC/C(C)=C/CC/C(C)=C/CCC1(C)CCc2c(C)ccc(O)c2O1 (configuration not stated)	inactive	inactive	Active	–	inactive	–	–	–	–	–	–	–	–
COC(=O)c1c(O)cc(O)cc1Oc1c(O)c(OC)cc(CC=C(C)C)c1OC [PAUCINERVIN B]	inactive	Active	Active	Active	Active	9.5 µM	Active	Active	–	Active	–	–	–
CC(C)=CCc1c(O)cc(O)c2c(=O)c3cc4c(c(O)c3oc12)OC(C)(C)C=C4	inactive	Active	Active	Active	Active	–	–	–	–	–	–	–	–
CC(C)=CCC/C(C)=C/CC/C(C)=C/CCC1(C)CCc2c(C)cc(O)c(O)c2O1 (configuration not stated) [PAUCINERVIN D]	inactive	inactive	Active	–	Active	29.5 µM	–	–	–	–	–	–	–
CC(C)=CCc1cc2c(=O)c3c(O)c(CC=C(C)C)c(O)c(CC=C(C)C)c3oc2c(O)c1O	inactive	inactive	Active	–	Active	–	–	–	–	–	–	–	–
CC(=O)O[C@H]1C(=O)[C@@]2(C)[C@H]([C@H](OC(=O)c3ccccc3)[C@]3(O)C[C@H](OC(=O)[C@H](O)[C@@H](NC(=O)c4ccccc4)c4ccccc4)C(C)=C1C3(C)C)[C@]1(OC(C)=O)CO[C@@H]1C[C@@H]2O	–	–	–	–	–	–	–	–	–	–	–	–	Active
C=CC(C)(C)c1c(OC)c(CC=C(C)C)c(O)c2c(=O)c3ccc(O)c(O)c3oc12	inactive	inactive	Active	–	Active	–	–	–	–	–	–	–	–
CC(C)=CC[C@H]1C[C@@]23C[C@@H](CC=C(C)C)C(C)(C)[C@@](CC=C(C)C)(C(=O)C(C(=O)c4ccc(O)c(O)c4)=C2OC1(C)C)C3=O	inactive	Active	inactive	Active	inactive	–	–	–	Active	–	Active	–	–
